This is an account of results in patent US20130109854A1, “Novel Methods for Preparation of (+)-1-ethyl-4-[2-(4-morpholinyl)ethyl)-3,3-diphenyl-2-pyrrolidinone and Salts Thereof” (priority 2011, published 2013).

The conditions of data set [1]: cited from earlier work.
Data set [2] is described as follows: Stimulating ventilation or reversing respiratory depression (respiratory stimulant activity). It counts as in vivo. To be noted: compared with racemic doxapram.
A short description of data set [3]: Acute side effects in animals. The format is in vivo. To be noted: compared with racemic doxapram or a salt thereof.

With `CCN1CC(CCN2CCOCC2)C(c2ccccc2)(c2ccccc2)C1=O` (racemic) [doxapram], the “tidal volume and respiratory rate” value in data set [1] (administered intravenously) is “increase”. For the same compound, the “effect on stimulating respiration (breathing)” value in data set [1] (animals, Ward & Franko, 1962) is “strong, dose-dependent effect”.

Take `CCN1CC(CCN2CCOCC2)C(c2ccccc2)(c2ccccc2)C1=O` (single isomer, unassigned; (-)) [(−)-doxapram]: the “activity in stimulating ventilation or reversing respiratory depression (desired beneficial pharmacological activity of racemic doxapram)” value in data set [2] is given as “essentially devoid of activity”.

`CCN1C[C@H](CCN2CCOCC2)C(c2ccccc2)(c2ccccc2)C1=O` [(+)-doxapram, (+)-4-(2-(1-ethyl-5-oxo-4,4-diphenylpyrrolidin-3-yl)ethyl)morpholine]: the “activity in stimulating ventilation or reversing respiratory depression (desired beneficial pharmacological activity of racemic doxapram)” value in data set [2] is “most or all the desired beneficial pharmacological activity associated with the racemic doxapram”. For the same compound, the “adverse side effects compared to administration of racemic doxapram” value in data set [3] was “significantly reduced adverse side effects”.
